# Results reported in patent publication US20180311217A1, “METHODS OF TREATMENT AND COMPOSITIONS WITH XANTHINE OXIDASE INHIBITORS” (Takeda Pharmaceuticals U.S.A., Inc., priority 2013, published 2018).
# Marks after values point to notes of the source that are not given here.
# Assays:
# [1] = tested on: hyperuricemic gout subjects with moderate to severe renal impairment; assay: Example 1 randomized double-blind 12 month study: serum urate (sUA); format: in vivo, human
# Description: Randomization was stratified at baseline using 3 strata: subjects taking an angiotensin receptor blocker (ARB), subjects taking an angiotensin converting enzyme inhibitors (ACEi), or subjects not taking an ARB or an ACEi. […] Serum samples for the analysis of sUA were collected as part of the standard chemistry panel at the time points stipulated in Schedule of Study Procedures (Table 1). All samples were collected in accordance with standard laboratory procedures. Serum urate concentrations were determined using the enzymatic method as performed by the Central Laboratory and were blinded to the Sponsor and investigative site beginning at Day 1 through the Month 12/ET visits. Missing data in all efficacy analyses was imputed with the last available postbaseline observation carrying forward (LOCF). A subject was included in the analysis of a specific efficacy variable only when there was both a baseline value and at least 1 value during the double-blind treatment period. […] The percentage of subjects with sUA<6 mg/dL at Month 12 was summarized by treatment group, and the treatment groups were compared by a CMH test with prior use of an ARB or ACEi as a stratification variable. In addition, change from baseline and percent change from Baseline in sUA were summarized by visit and by treatment.
# [2] = oral administration; cited from earlier work
# [3] = tested on: hyperuricemic gout subjects with moderate to severe renal impairment; assay: Example 1 study: subjects experiencing gout flares; format: in vivo, human
# Method: All subjects received colchicine 0.6 mg every other day (QOD) from the initial screening visit through the Month 6 visit only. Alternatively, if colchicine was not tolerated by the subject, prednisone may have been provided at the investigator's discretion in accordance with the stated guidelines listed under Prohibited Concomitant Medications.
# All subjects were instructed to take colchicine 0.6 mg QOD for prophylaxis. Colchicine began at the Screening Day −21 visit for all subjects. Subjects received colchicine 0.6 mg QOD through the Month 6 visit.
# Subjects were assessed for gout flares from the time the ICF was signed and throughout the duration of the study. Subjects were instructed to call the Investigator as soon as they thought they were having a gout flare. The Gout Flare Assessment Worksheet was completed by the site personnel (ie, study coordinator, study nurse, or the investigator).
# Subjects were instructed to report the following information: the onset and end date of the flare, the kind of prophylaxis medication they were taking at the time of the event, whether or not the attack required medication (including type) and dates of treatment, the location of the flare, signs and symptoms regarding the flare including the severity, subjects' pain intensity (pain in rest), and the assessment of current gout flare compared to all previous gout flares in any joints. In addition, the subjects were asked an exploratory question in nature: the subject was asked during their current gout attack to indicate the degree of which the subject's physical mobility had been limited (on a scale of 0-10). The investigator reviewed the information provided and assessed whether or not they believed the subject experienced a gout flare and/or documented an alternative etiology.
# Summary statistics for the number and percentage of subjects experiencing a gout flare were summarized by treatment group within the following intervals: Day 1 to Month 2 (Day 1 to 60), Month 2 to 4 (Day 61 to 120), Month 4 to 6 (Day 121 to 180), Month 6 to 8 (Day 181 to 240), Month 8 to 10 (Day 241 to 300), Month 10 to 12 (>day 301, and overall Day 1 to Month 6, and Month 6 to Month 12. All gout flares with onset after Day 301 (including those reported <30 days since last dose) were included in the Month 10 to 12 interval.
smiles,measurement,setting,value
"Cc1nc(-c2ccc(OCC(C)C)c(C#N)c2)sc1C(=O)O [Febuxostat, 2-[3-cyano-4-(2-methylpropoxy)phenyl]-4-methylthiazole-5-carboxylic acid]",Percentage of Subjects with sUA < 6.0 mg/dL,"[1]; 30 mg BID, Day 14",71.9 (23/32) %
same,Percentage of Subjects with sUA < 6.0 mg/dL,"[1]; 30 mg BID, Month 1",71.9 (23/32) %
same,Percentage of Subjects with sUA < 6.0 mg/dL,"[1]; 30 mg BID, Month 3",78.1 (25/32) %
same,Percentage of Subjects with sUA < 6.0 mg/dL,"[1]; 30 mg BID, Month 6",65.6 (21/32)* %
same,"Serum urate change from Baseline, LS mean (SE)","[1]; 30 mg BID, Month 6",−5.08 (0.304) mg/dL
same,"Serum urate change from Baseline, LS mean difference (SE) from placebo group","[1]; 30 mg BID, Month 6",−5.15 (0.428) mg/dL
same,Percentage of Subjects with sUA < 6.0 mg/dL,"[1]; 30 mg BID, Month 9",68.8 (22/32) %
same,Percentage of Subjects with sUA < 6.0 mg/dL,"[1]; 30 mg BID, Month 12",68.8 (22/32)* %
same,"Serum urate change from Baseline, LS mean (SE)","[1]; 30 mg BID, Month 12",−4.97 (0.318) mg/dL
same,"Serum urate change from Baseline, LS mean difference (SE) from placebo group","[1]; 30 mg BID, Month 12",−4.82 (0.447) mg/dL
same,"Serum urate change from Baseline, LS mean (SE)","[1]; 30 mg BID, Month 12, listed as febuxostat",-4.97 mg/dL
same,Percentage of Subjects with sUA < 6.0 mg/dL,"[1]; 40/80 mg QD, Day 14",33.3 (10/30) %
same,Percentage of Subjects with sUA < 6.0 mg/dL,"[1]; 40/80 mg QD, Month 1",35.5 (11/31) %
same,Percentage of Subjects with sUA < 6.0 mg/dL,"[1]; 40/80 mg QD, Month 3",58.1 (18/31) %
same,Percentage of Subjects with sUA < 6.0 mg/dL,"[1]; 40/80 mg QD, Month 6",51.6 (16/31)* %
same,"Serum urate change from Baseline, LS mean (SE)","[1]; 40/80 mg QD, Month 6",−4.29 (0.309) mg/dL
same,"Serum urate change from Baseline, LS mean difference (SE) from placebo group","[1]; 40/80 mg QD, Month 6",−4.36 (0.431) mg/dL
same,Percentage of Subjects with sUA < 6.0 mg/dL,"[1]; 40/80 mg QD, Month 9",58.1 (18/31) %
same,Percentage of Subjects with sUA < 6.0 mg/dL,"[1]; 40/80 mg QD, Month 12",45.2 (14/31)* %
same,"Serum urate change from Baseline, LS mean (SE)","[1]; 40/80 mg QD, Month 12",−4.17 (0.323) mg/dL
same,"Serum urate change from Baseline, LS mean difference (SE) from placebo group","[1]; 40/80 mg QD, Month 12",−4.02 (0.451) mg/dL
same,"Serum urate change from Baseline, LS mean (SE)","[1]; 40/80 mg QD, Month 12, listed as febuxostat",-4.17 mg/dL
same,orally administered febuxostat eliminated in the urine as unchanged drug,[2],< 4%
same,Percentage of Subjects With Gout Flares,"[3]; 30 mg BID, 2 to ≤4 months",(10.7) %
same,Percentage of Subjects With Gout Flares,"[3]; 30 mg BID, 4 to ≤6 months",(14.3) %
same,Percentage of Subjects With Gout Flares,"[3]; 30 mg BID, 4 to ≤6 months, listed as febuxostat",14.3%
same,Percentage of Subjects With Gout Flares,"[3]; 30 mg BID, 6 to ≤8 months (after prophylaxis ended)",(26.3) %
same,Percentage of Subjects With Gout Flares,"[3]; 30 mg BID, 6 to ≤8 months (after prophylaxis ended), listed as febuxostat",26.3%
same,Percentage of Subjects With Gout Flares,"[3]; 30 mg BID, 8 to ≤10 months",(5.9) %
same,Percentage of Subjects With Gout Flares,"[3]; 30 mg BID, 10 to ≤12 months",(11.8) %
same,Percentage of Subjects With Gout Flares,"[3]; 30 mg BID, Day 1 to Month 6",(28.1)* %
same,Percentage of Subjects With Gout Flares,"[3]; 30 mg BID, Day 1 to Month 6, listed as febuxostat",28.1%
same,Percentage of Subjects With Gout Flares,"[3]; 30 mg BID, Month 6 to Month 12",(31.6)* %
same,Percentage of Subjects With Gout Flares,"[3]; 30 mg BID, Month 6 to Month 12, listed as febuxostat",31.6%
same,Percentage of Subjects With Gout Flares,"[3]; 30 mg BID, ≤2 months",(18.8)* %
same,"Increase of percentage of subjects with at least one gout flare, months 6 to ≤8 relative to months 4 through 6",[3]; 30 mg IR BID,84%
same,"Increase of percentage of subjects with at least one gout flare, months 6 to ≤8 relative to months 4 through 6",[3]; 40/80 mg IR QD,279%
same,Percentage of Subjects With Gout Flares,"[3]; 40/80 mg QD, 2 to ≤4 months",(27.6) %
same,Percentage of Subjects With Gout Flares,"[3]; 40/80 mg QD, 4 to ≤6 months",(17.9) %
same,Percentage of Subjects With Gout Flares,"[3]; 40/80 mg QD, 4 to ≤6 months, listed as febuxostat",17.9%
same,Percentage of Subjects With Gout Flares,"[3]; 40/80 mg QD, 6 to ≤8 months (after prophylaxis ended)",(50.0) %
same,Percentage of Subjects With Gout Flares,"[3]; 40/80 mg QD, 6 to ≤8 months (after prophylaxis ended), listed as febuxostat",50.0%
same,Percentage of Subjects With Gout Flares,"[3]; 40/80 mg QD, 8 to ≤10 months",(22.2) %
same,Percentage of Subjects With Gout Flares,"[3]; 40/80 mg QD, 10 to ≤12 months",(23.1) %
same,Percentage of Subjects With Gout Flares,"[3]; 40/80 mg QD, Day 1 to Month 6",(56.3) %
same,Percentage of Subjects With Gout Flares,"[3]; 40/80 mg QD, Day 1 to Month 6, listed as febuxostat",56.3%
same,Percentage of Subjects With Gout Flares,"[3]; 40/80 mg QD, Month 6 to Month 12",(64.3) %
same,Percentage of Subjects With Gout Flares,"[3]; 40/80 mg QD, Month 6 to Month 12, listed as febuxostat",64.3%
same,Percentage of Subjects With Gout Flares,"[3]; 40/80 mg QD, ≤2 months",(50.0) %
